Data: paper PMC4904242, “Comparative chemical genomics reveal that the spiroindolone antimalarial KAE609 (Cipargamin) is a P-type ATPase inhibitor” (Scientific Reports, 2016)

Biological target: T1, ScPma1p (Saccharomyces cerevisiae, UniProt P05030)
T1 construct: gene PMA1; ScPma1p-coated secretory vesicles from S. cerevisiae overexpressing ScPMA1
Experiment: cell-free vesicle ATPase assay (Pi release)
Type: biochemical

T1 sequence (P05030 whole entry): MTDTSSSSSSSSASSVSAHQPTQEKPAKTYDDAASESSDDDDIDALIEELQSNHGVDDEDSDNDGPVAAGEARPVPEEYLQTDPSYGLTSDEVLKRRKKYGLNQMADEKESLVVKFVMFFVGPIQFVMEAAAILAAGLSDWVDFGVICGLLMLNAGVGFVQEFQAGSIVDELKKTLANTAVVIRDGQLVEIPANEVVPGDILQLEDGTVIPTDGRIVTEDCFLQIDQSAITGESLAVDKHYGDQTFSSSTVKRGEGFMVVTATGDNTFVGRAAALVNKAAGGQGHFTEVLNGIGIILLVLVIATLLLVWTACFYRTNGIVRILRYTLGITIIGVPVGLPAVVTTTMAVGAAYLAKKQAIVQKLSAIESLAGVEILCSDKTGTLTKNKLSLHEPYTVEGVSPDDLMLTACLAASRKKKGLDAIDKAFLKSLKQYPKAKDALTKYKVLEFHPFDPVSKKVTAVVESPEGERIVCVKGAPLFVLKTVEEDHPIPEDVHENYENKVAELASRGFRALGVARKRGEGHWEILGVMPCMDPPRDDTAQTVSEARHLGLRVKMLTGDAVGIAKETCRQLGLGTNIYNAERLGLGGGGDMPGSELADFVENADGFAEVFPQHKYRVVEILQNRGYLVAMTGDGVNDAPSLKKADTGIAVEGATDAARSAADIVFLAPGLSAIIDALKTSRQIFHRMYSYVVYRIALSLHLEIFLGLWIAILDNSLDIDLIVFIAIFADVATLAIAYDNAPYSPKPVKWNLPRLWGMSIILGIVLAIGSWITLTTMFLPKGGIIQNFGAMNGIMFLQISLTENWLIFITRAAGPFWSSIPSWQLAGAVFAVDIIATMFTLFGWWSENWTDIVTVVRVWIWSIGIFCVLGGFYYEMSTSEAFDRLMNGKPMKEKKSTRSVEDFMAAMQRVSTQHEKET

IC50: 81.1 nM
Compound: C[C@H]1Cc2c([nH]c3cc(Cl)c(F)cc23)[C@@]2(N1)C(=O)Nc1ccc(Cl)cc12 [6′F 7′Cl, KAE609]
